Structures can show the parent of a compound that is named as a salt. Some results are limits rather than exact numbers.

The record followed here is patent US5135955A, “Propanamine derivatives” (Eli Lilly and Company, priority 1989, dated 1992).

For one test, the system named is Candida albicans A26. The test can be described thus: in vitro antifungal activity, Candida albicans (MIC). Format: cell-based. The settings on record: 35° C., 48 hours, RPMI 1640 plus 10% fetal calf serum, 95-100% inhibition of growth; for MIC: read-out: minimum inhibitory concentration (MIC), C.a. On the procedure: (§1) The antifungal activity was assayed in vitro against Candida abicans A26, Trichophyton mentagrophytes CDC27, and Aspergillus flavus M152. The inocula, previously frozen under liquid nitrogen in a lactose, glycerol and water solution, were standardized by counting spores with a hemocytometer. Final concentrations (C. albicans, 1×10^5 cells/m; T. mentagrophytes, 1×10^6 cells/ml; A. flavus, 1×10^5 cells/ml) in RPMI 1640 plus 10% fetal calf serum were added to each of the 96 wells of a microtiter plate (100 μl/well).The compounds to be tested were solubilized in either water or ethanol and added to the microtiter wells in serial dilutions to give final concentrations in the range 0.039-20 μg/ml. The plates were incubated at 35° C. for 48 hours. The minimum inhibitory concentration (MIC) values were determined as the highest dilution showing 95-100% inhibition of growth.
(§2) ^a Minimum inhibitory concentration expressed in μg/ml
^b C.a. means Candida albicans A26

The next test concerns Aspergillus flavus M152. The test can be described thus: in vitro antifungal activity, Aspergillus flavus (MIC). Format: cell-based. To be noted: 35° C., 48 hours, RPMI 1640 plus 10% fetal calf serum, 95-100% inhibition of growth; for MIC: read-out: minimum inhibitory concentration (MIC), A.f. On the procedure:
as §1, §2
^c A.f. means Aspergillus flavus M152

The test system of test [1] is Trichophyton mentagrophytes CDC27. The test can be described thus: in vitro antifungal activity, Trichophyton mentagrophytes (MIC). Format: cell-based. The settings on record: 35° C., 48 hours, RPMI 1640 plus 10% fetal calf serum, 95-100% inhibition of growth; for MIC: read-out: minimum inhibitory concentration (MIC), T.m. On the procedure:
as §1, §2
^d T.m. means Trichophyton mentagrophytes CDC27

In test [2] the test system is thromboplastin clotting time in human plasma. The test can be described thus: prothrombin time test (thromboplastin clotting time in human plasma). The test is classed as biochemical. The settings on record: 37° C., human plasma. On the procedure: Briefly, to 0.1 ml of each of human plasma, normal saline and thromboplastin was added 0.03 ml of the test compound of the present invention (2 mg/ml in 50 percent methanol). The clotting time was measured at 37° C. with a Fibrometer.
^a Expressed in seconds
^b Concentration of compound tested in micrograms per milliliter of […]

[3] abbreviates: 45 micrograms per milliliter of plasma.
Where [4] appears, read: 90 micrograms per milliliter of plasma.
Setting [5] is: 180 micrograms per milliliter of plasma.
[6] abbreviates: 11 micrograms per milliliter of plasma, hydrochloride.
The mark [7] stands for this setting: 22 micrograms per milliliter of plasma, hydrochloride.
Setting [8] is: 45 micrograms per milliliter of plasma, hydrochloride.
Where [9] appears, read: 90 micrograms per milliliter of plasma, hydrochloride.
[10] abbreviates: 11 micrograms per milliliter of plasma.
[11] abbreviates: 22 micrograms per milliliter of plasma.

“4-(2-Butenyloxy)-N,N,α-trimethylbenzenepropanamine hydrochloride [Example 56]”: the “minimum inhibitory concentration (MIC), C.a.” value with Candida albicans A26 came out at 0.625 µg/mL. Also, the “minimum inhibitory concentration (MIC), A.f.” value in the test with Aspergillus flavus M152 came to 5 µg/mL. Besides, the “minimum inhibitory concentration (MIC), T.m.” value in test [1] amounted to 0.312 µg/mL.

Turning to `CC(CCc1ccc(OCCC2CCCCC2)cc1)NCCN(C)C` (stereo not shown) [Example 46, N'-[3-[4-(2-Cyclohexylethoxy)phenyl]-1-methylpropyl]-N,N-dimethyl-1,2-ethanediamine dihydrochloride], the MIC with Candida albicans A26 was found to be 10 µg/mL; in the test with Aspergillus flavus M152, 20 µg/mL; in test [1] it was 10 µg/mL.

`CC(CCc1ccc(OC2CCCC2)cc1)NCCN1CCOCC1` (stereo not shown) [Example 47, N-[3-[4-(Cyclopentyloxy)phenyl]-1-methylpropyl]-4-morpholineethanamine dihydrochloride]: the MIC in the test on Candida albicans A26 stood at 10 µg/mL; in the test with Aspergillus flavus M152, 10 µg/mL; in test [1], 20 µg/mL.

`CCCCCCCCCOc1ccc(CCC(C)NCCN(C)C)cc1` (stereo not shown) [Example 54, N,N-Dimethyl-N'-[1-methyl-3-[4-(nonyloxy)phenyl]propyl]-1,2-ethanediamine dihydrochloride]: the plasma prothrombin time was 37 s in test [2] (setting [3]), 99 s in test [2] (setting [4]) and above 300 s in test [2] (setting [5]).

`CSCCOc1ccc(CCC(C)N(C)C)cc1` (stereo not drawn) [Example 57, 4-(2-Methylthioethoxy)-N,N,α-trimethylbenzenepropanamine hydrochloride]: the MIC in the test on Candida albicans A26 worked out at 1.25 µg/mL; in the test on Aspergillus flavus M152 it was 20 µg/mL; in test [1], 0.312 µg/mL.

With `CC(CCc1ccc(OCCN(C)C)cc1)N(C)C` (stereo not drawn) [Example 58, 4-[2-(Dimethylamino)ethoxy]-N,N,α-trimethylbenzenepropylamine dihydrochloride], the MIC amounted to 1.25 µg/mL in the test on Candida albicans A26, 20 µg/mL in the test on Aspergillus flavus M152 and 10 µg/mL in test [1].

As to `CC(CCc1ccc(OCCCC#N)cc1)N(C)C` (stereo not shown) [Example 59, 4-8 4-[3-(Dimethylamino)butyl]phenoxy]butanenitrile hydrochloride], the figures for the MIC (in the test on Candida albicans A26; with Aspergillus flavus M152; in test [1]) were 2.5 µg/mL, 20 µg/mL and 20 µg/mL, respectively.

Consider `CC(CCc1ccc(OCC(=O)C(C)(C)C)cc1)N(C)C` (stereo not shown) [Example 60, 3,3-Dimethyl-1-[4-[3-(dimethylamino)-1-butyl]phenoxy]-2-butenone hydrochloride], for which the MIC amounted to 10 µg/mL in the test with Candida albicans A26, 10 µg/mL in the test on Aspergillus flavus M152 and 0.625 µg/mL in test [1].

As for `CC(CCc1ccc(OCCn2ccnc2)cc1)N(C)C` (stereo not drawn) [Example 61, N,N,α-Trimethyl-4-[2-(1H-imidazol-1-yl)ethoxy]benzenepropanamine], the MIC is 5 µg/mL in the test with Candida albicans A26, above 20 µg/mL in the test on Aspergillus flavus M152 and 10 µg/mL in test [1].

`CC(CCc1ccc(OCCn2cncn2)cc1)N(C)C` (stereo not drawn) [Example 62, N,N,α-Trimethyl-4-[2-(1H-1,2,4-triazol-1-yl)ethoxy]benzenepropanamine]: the results for the MIC (in the test on Candida albicans A26; with Aspergillus flavus M152; in test [1]) were 10 µg/mL, 20 µg/mL and 10 µg/mL, respectively.

Regarding `CC(CCc1ccc(OCc2cccc(F)c2)cc1)N(C)C` (stereo not drawn) [Example 63, N,N,α-Trimethyl-4-[(3-fluorophenyl)methoxy]benzenepropanamine hydrochloride], the MIC is 0.625 µg/mL in the test with Candida albicans A26, 5 µg/mL in the test on Aspergillus flavus M152 and 1.25 µg/mL in test [1].

Take `CC(CCc1ccc(OCc2ccc(Cl)cc2Cl)cc1)N(C)C` (stereo not drawn) [Example 64, N,N,α-Trimethyl-4-(2,4-dichlorophenyl)methoxy]benzenepropanamine hydrochloride]: the MIC in the test with Candida albicans A26 turned out to be 20 µg/mL; in the test with Aspergillus flavus M152, 5 µg/mL; in test [1], 5 µg/mL.

`CC(CCc1ccc(OCc2ccc(C(F)(F)F)cc2)cc1)N(C)C` (stereo not drawn) [Example 65, N,N,α-Trimethyl-4-[[4-(trifluoromethyl)phenyl]methoxy]-benzenepropanamine hydrochloride]: the MIC was found to be 20 µg/mL in the test on Candida albicans A26, 10 µg/mL in the test with Aspergillus flavus M152 and 5 µg/mL in test [1].

In the case of `CC(CCc1ccc(OS(=O)(=O)c2ccccc2)cc1)N(C)C` (stereo not shown) [Example 66, Benzenesulfonic acid 4-[3-(dimethylamino)butyl]phenylester], the MIC in the test on Candida albicans A26 was 10 µg/mL; in the test on Aspergillus flavus M152, 20 µg/mL; in test [1], 5 µg/mL.

With `CCCS(=O)(=O)Oc1ccc(CCC(C)N(C)C)cc1` (stereo not shown) [Example 67], the MIC was 20 µg/mL with Candida albicans A26, 20 µg/mL in the test with Aspergillus flavus M152 and above 20 µg/mL in test [1].

As to `CCCCOc1ccc(CCC(C)N(C)CC)cc1` (stereo not drawn) [Example 68, 4-Butoxy-N-ethyl-N,α-dimethylbenzenepropanamine hydrochloride], the MIC in the test on Candida albicans A26 stood at 0.625 µg/mL; with Aspergillus flavus M152 it was 0.625 µg/mL; in test [1], 1.25 µg/mL.

For `CC(CCc1ccc(OCCC(C)(C)C)cc1)N(C)C.Cl` (stereo not shown) [Example 75, 4-(3,3-Dimethylbutoxy)-N,N,αtrimethylbenzenepropanamine hydrochloride], the plasma prothrombin time was 18 s in test [2] (setting [6]); 23 s in test [2] (setting [7]); 32 s in test [2] (setting [8]); 52 s in test [2] (setting [9]); 90 s in test [2] (setting [5]).

With `COCCOc1ccc(CCC(C)N(C)C)cc1.Cl` (stereo not drawn) [Example 76, 4-(2-Methoxyethoxy)-N,N,α-trimethylbenzenepropanamine hydrochloride], the plasma prothrombin time in test [2] (setting [3]) was determined as 17 s; in test [2] (setting [4]), 17 s; in test [2] (setting [5]) it was 18 s.

On to `CCCCOc1ccc(CCC(C)N2CCCC2)cc1.Cl` (stereo not shown) [Example 77, 1-[3-[4-(Butoxy)phenyl]-1-methylpropyl]-pyrrolidine hydrochloride], for which the plasma prothrombin time was determined as 15 s in test [2] (setting [10]); 16 s in test [2] (setting [11]); 23 s in test [2] (setting [3]); 24 s in test [2] (setting [4]); 53 s in test [2] (setting [5]).

With `CCCCOc1ccc(CC(C)CN(C)C)cc1.Cl` (stereo not drawn) [Example 78, 4-Butoxy-N,N,β-trimethylbenzenepropanamine hydrochloride], the plasma prothrombin time in test [2] (setting [3]) came to 23 s; in test [2] (setting [4]), 31 s; in test [2] (setting [5]) it was 67 s.

Take `CC(CCc1ccc(OCCC(C)(C)C)cc1)N(C)C.Cl` (stereo not drawn) [Example 79, 4-(3,3-Dimethylbutoxy)-N,N,α-trimethylbenzenepropanamine hydrochloride]: the plasma prothrombin time in test [2] (setting [6]) amounted to 19 s; in test [2] (setting [7]) it was 21 s; in test [2] (setting [8]) it was 31 s; in test [2] (setting [9]), 55 s; in test [2] (setting [5]) it was 90 s.

For the compound `CC(CCc1ccc(OCC2CCCC2)cc1)N(C)C` (stereo not drawn) [Example 80, 4-Cyclopentylmethoxy-N,N-α-trimethylbenzenepropanamine hydrochloride], the plasma prothrombin time in test [2] (setting [10]) amounted to 17 s; in test [2] (setting [11]), 19 s; in test [2] (setting [8]), 24 s; in test [2] (setting [9]) it was 43 s; in test [2] (180 micrograms per milliliter of plasma, hydrochloride) it was 88 s.

For the compound `CC(CCc1ccc(OCC2CCCC2)cc1)N(C)C` (stereo not drawn) [Example 81, 4-Cyclopentylmethoxy-N,N-α-trimethylbenzenepropanamine], the figures for the plasma prothrombin time in test [2] (setting [3]), in test [2] (setting [4]) and in test [2] (setting [5]) were 20 s, 25 s and 47 s, respectively.

For `CC(CCc1ccc(OCc2ccc(F)cc2)cc1)N(C)C.Cl` (stereo not drawn) [Example 82, 4-[(4-Fluorophenyl)methoxy]-N,N,α-trimethylbenzenepropanamine hydrochloride], the plasma prothrombin time in test [2] (setting [10]) turned out to be 18 s; in test [2] (setting [11]), 19 s; in test [2] (setting [3]), 24 s; in test [2] (setting [4]), 29 s; in test [2] (setting [5]), 75 s.

Consider `CC(CCc1ccc(C(C)(C)C)cc1)N(C)C.Cl` (stereo not drawn) [Example 83, 4-(1,1-Dimethylethyl)-N,N,α-trimethylbenzenepropanamine hydrochloride], for which the values for the plasma prothrombin time in test [2] (setting [3]), in test [2] (setting [4]) and in test [2] (setting [5]) were 21 s, 26 s and 37 s, respectively.
